In patent US6723733B2, “Sulfonamide and carbamide derivatives of 6(5H)phenanthridinones and their uses” (Guilford Pharmaceuticals, Inc., priority 2000, dated 2004):
pIC50: −log10 of the molar value.

The compounds below were run against T1, purified recombinant human PARP (Homo sapiens, UniProt P09874) (assay: PARP enzyme assay (IC50), [3H]NAD incorporation). Conditions: approximate IC50 values; 25° C., 15 minutes.
T1 construct: purchased Trevigan (Gaithersburg, Md.)
Format: biochemical
Protocol: The reaction is initiated by incubating the mixture at 25° C. After 15 minutes of incubation. the reaction is terminated by adding 500 microliters of ice cold 20% (w/v) trichloroacetic acid. The precipitate formed is transferred onto a glass fiber filter (Packard Unifilter-GF/B) and washed three times with ethanol. After the filter is dried, the radioactivity is determined by scintillation counting.

T1 sequence (P09874 whole entry): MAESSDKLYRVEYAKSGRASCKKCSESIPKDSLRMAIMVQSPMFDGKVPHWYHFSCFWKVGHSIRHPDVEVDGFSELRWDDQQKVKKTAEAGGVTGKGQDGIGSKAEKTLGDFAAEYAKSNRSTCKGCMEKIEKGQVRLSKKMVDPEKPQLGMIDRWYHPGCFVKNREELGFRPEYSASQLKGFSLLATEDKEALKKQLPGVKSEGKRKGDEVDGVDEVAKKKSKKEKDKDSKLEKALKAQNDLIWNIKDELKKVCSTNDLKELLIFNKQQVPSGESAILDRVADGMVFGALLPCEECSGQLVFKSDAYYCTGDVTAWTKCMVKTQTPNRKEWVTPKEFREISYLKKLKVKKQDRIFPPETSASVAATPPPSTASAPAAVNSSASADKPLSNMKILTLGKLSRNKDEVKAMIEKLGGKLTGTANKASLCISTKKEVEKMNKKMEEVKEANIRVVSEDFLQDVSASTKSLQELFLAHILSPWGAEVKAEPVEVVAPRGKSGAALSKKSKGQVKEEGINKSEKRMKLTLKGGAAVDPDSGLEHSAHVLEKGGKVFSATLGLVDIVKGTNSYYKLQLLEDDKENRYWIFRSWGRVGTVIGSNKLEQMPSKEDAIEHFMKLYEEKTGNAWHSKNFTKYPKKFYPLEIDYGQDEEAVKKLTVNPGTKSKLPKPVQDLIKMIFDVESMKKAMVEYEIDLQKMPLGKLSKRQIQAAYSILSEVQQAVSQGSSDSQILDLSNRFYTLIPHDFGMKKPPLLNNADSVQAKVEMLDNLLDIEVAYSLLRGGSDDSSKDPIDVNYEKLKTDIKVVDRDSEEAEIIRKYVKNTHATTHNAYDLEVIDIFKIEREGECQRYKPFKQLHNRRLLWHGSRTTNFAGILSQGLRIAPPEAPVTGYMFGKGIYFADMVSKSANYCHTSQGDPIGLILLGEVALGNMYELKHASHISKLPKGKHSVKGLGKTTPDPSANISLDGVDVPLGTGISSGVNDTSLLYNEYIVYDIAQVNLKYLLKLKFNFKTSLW

`O=C(O)[C@@H]1CCCN1C(=O)c1ccc2c(c1)[nH]c(=O)c1cc(F)ccc12` [Compound 21] and `COC(=O)[C@@H]1CCCN1C(=O)c1ccc2c(c1)[nH]c(=O)c1cc(F)ccc12` [Compound 19] are within 0.2 log units of each other in pIC50: 6.91 for the first, 6.80 for the second.

Compared with `Cc1cc2[nH]c(=O)c3ccccc3c2cc1NC(=O)CCc1ccccc1` [Compound 59], `Cc1cc2[nH]c(=O)c3ccccc3c2cc1NC(=O)Cc1ccc(F)cc1` [Compound 62] is 1.23 log units higher in pIC50: 5.12 for the first, 6.35 for the second. The second is the more potent here.

Compared with `O=C(c1ccc(F)cc1)C1CCN(S(=O)(=O)c2ccc3[nH]c(=O)c4ccccc4c3c2)CC1` [Compound 61], `CCOC(=O)C1CCN(S(=O)(=O)c2ccc3[nH]c(=O)c4ccccc4c3c2)CC1` [Compound 65] is 0.20 log units higher in pIC50: 6.50 for the first, 6.70 for the second.

`O=c1[nH]c2ccc(S(=O)(=O)O)cc2c2ccccc12` [Compound 22] and `O=c1[nH]c2ccc(S(=O)(=O)N3CCCC(CO)C3)cc2c2ccccc12` (stereo not drawn) [Compound 67] are within 0.2 log units of each other in pIC50: 6.94 for the first, 6.79 for the second.

First: O=c1[nH]c2ccc(S(=O)(=O)NCCN3CCCC3)cc2c2ccccc12 [Compound 53]
Second: O=c1[nH]c2ccc(S(=O)(=O)NCCN3CCOCC3)cc2c2ccccc12 [Compound 4]
The pIC50 of the first is 0.28 log units higher: 7.13 for the first, 6.85 for the second. The first is the more potent here.

Compared with `O=C(NCCN1CCOCC1)c1ccc2c(c1)[nH]c(=O)c1ccccc12` [Compound 40], `O=C(c1ccc2c(c1)[nH]c(=O)c1ccccc12)N1CCOCC1` [Compound 2] is 3.46 log units lower in pIC50: 7.46 for the first, 4.00 for the second. The first is the more potent here.

`O=C(O)CCC(=O)Nc1ccc2[nH]c(=O)c3ccccc3c2c1` [Compound 27] and `O=C(CCl)Nc1ccc2[nH]c(=O)c3ccccc3c2c1` [Compound 5] are within 0.2 log units of each other in pIC50: 6.95 for the first, 7.10 for the second.

`COC(=O)[C@@H]1CCCN1C(=O)c1ccc2c(c1)[nH]c(=O)c1ccccc12` [Compound 41] and `O=C(O)[C@H]1CCCN1C(=O)c1ccc2c(c1)[nH]c(=O)c1ccccc12` [Compound 10] are within 0.2 log units of each other in pIC50: 6.93 for the first, 7.05 for the second.

Compared with `O=C(O)CCC(NC(=O)c1ccc2c(c1)[nH]c(=O)c1ccccc12)C(=O)O` (stereo not drawn) [Compound 25], `O=C(NC(CO)C(=O)O)c1ccc2c(c1)[nH]c(=O)c1ccccc12` (stereo not drawn) [Compound 30] is 0.51 log units higher in pIC50: 6.57 for the first, 7.08 for the second.

`CC(=O)Nc1cc2c(cc1C)[nH]c(=O)c1ccccc12` [Compound 45] and `Cc1cc2[nH]c(=O)c3ccccc3c2cc1NC(=O)C(C)Br` (stereo not drawn) [Compound 63] are within 0.2 log units of each other in pIC50: 6.64 for the first, 6.76 for the second.

Compared with `COC(=O)c1ccc2c(c1)[nH]c(=O)c1cc(F)ccc12` [Compound 48], `O=C(NCc1ccccc1)c1ccc2c(c1)[nH]c(=O)c1cc(F)ccc12` [Compound 16] is 1.03 log units lower in pIC50: 7.43 for the first, 6.40 for the second.

Compared with `O=c1[nH]c2ccc(S(=O)(=O)NC3CN4CCC3CC4)cc2c2ccccc12` (stereo not drawn) [Compound 64], `COC(=O)C1CCCN1S(=O)(=O)c1ccc2[nH]c(=O)c3ccccc3c2c1` (stereo not drawn) [Compound 58] is 1.41 log units lower in pIC50: 7.37 for the first, 5.96 for the second.

`O=C(N[C@@H](Cc1ccc(F)cc1)C(=O)O)c1ccc2c(c1)[nH]c(=O)c1ccccc12` [Compound 33] and `O=C(N[C@@H](Cc1ccccc1)C(=O)O)c1ccc2c(c1)[nH]c(=O)c1ccccc12` [Compound 34] are within 0.2 log units of each other in pIC50: 7.35 for the first, 7.19 for the second.

Going from `C[N+](C)(C)CC(=O)Nc1ccc2[nH]c(=O)c3ccccc3c2c1` [Compound 7] to `Cc1cc2[nH]c(=O)c3ccccc3c2cc1NC(=O)C[N+](C)(C)C` [Compound 54], the pIC50 falls from 7.52 to 6.71 (0.81 log units).

Going from `Cc1cc2[nH]c(=O)c3ccccc3c2cc1NC(=O)CCl` [Compound 47] to `Cc1cc2[nH]c(=O)c3ccccc3c2cc1NC(=O)c1cccc(F)c1` [Compound 52], the pIC50 falls from 6.82 to 5.92 (0.90 log units). The first is the more potent here.

First: Cc1ccc(S(=O)(=O)Nc2ccc3[nH]c(=O)c4ccccc4c3c2)cc1 [Compound 1]
Second: Cc1ccc(S(=O)(=O)Nc2cc3c(cc2C)[nH]c(=O)c2ccccc23)cc1 [Compound 56]
The pIC50 of the first is 1.69 log units higher: 6.92 for the first, 5.23 for the second. The first is the more potent here.

Compared with `CCC(C)C(NC(=O)c1ccc2c(c1)[nH]c(=O)c1ccccc12)C(=O)O` (stereo not drawn) [Compound 26], `CC(C)[C@H](NC(=O)c1ccc2c(c1)[nH]c(=O)c1ccccc12)C(=O)O` [Compound 39] is 1.45 log units higher in pIC50: 6.15 for the first, 7.60 for the second.

Going from `O=C(N[C@H](C(=O)O)c1ccccc1)c1ccc2c(c1)[nH]c(=O)c1ccccc12` [Compound 38] to `CC(NC(=O)c1ccc2c(c1)[nH]c(=O)c1ccccc12)C(=O)O` (stereo not drawn) [Compound 24], the pIC50 falls from 7.51 to 7.25 (0.26 log units).

Going from `NCCCCC(NC(=O)c1ccc2c(c1)[nH]c(=O)c1ccccc12)C(=O)O` (stereo not drawn) [Compound 28] to `NCCCC[C@H](NC(=O)c1ccc2c(c1)[nH]c(=O)c1ccccc12)C(=O)O` [Compound 37], the pIC50 rises from 6.47 to 7.06 (0.59 log units).

Compared with `CN1CCN(S(=O)(=O)c2ccc3c(c2)[nH]c(=O)c2cc(F)ccc23)CC1` [Compound 43], `O=c1[nH]c2cc(S(=O)(=O)NCCN3CCOCC3)ccc2c2ccc(F)cc12` [Compound 44] is 0.75 log units higher in pIC50: 6.97 for the first, 7.72 for the second.

Compared with `O=C(Nc1ccc2[nH]c(=O)c3ccccc3c2c1)c1ccc(F)cc1` [Compound 31], `O=C(NCCc1ccccc1)c1ccc2c(c1)[nH]c(=O)c1cc(F)ccc12` [Compound 18] is 0.34 log units lower in pIC50: 7.16 for the first, 6.82 for the second. The first is the more potent here.

`O=c1[nH]c2ccc(S(=O)(=O)NCCN(CCO)CCO)cc2c2ccccc12` [Compound 8] and `O=c1[nH]c2ccc(S(=O)(=O)NCc3ccncc3)cc2c2ccccc12` [Compound 55] are within 0.2 log units of each other in pIC50: 7.22 for the first, 7.03 for the second.

First: O=C(NCCOCCO)c1ccc2c(c1)[nH]c(=O)c1ccccc12 [Compound 50]
Second: C[C@H](NC(=O)c1ccc2c(c1)[nH]c(=O)c1ccccc12)C(=O)O [Compound 32]
The pIC50 of the first is 0.34 log units lower: 7.10 for the first, 7.44 for the second.

`NCCN1CCN(S(=O)(=O)c2ccc3[nH]c(=O)c4ccccc4c3c2)CC1` [Compound 51] and `CC(=O)NCCN1CCN(S(=O)(=O)c2ccc3[nH]c(=O)c4ccccc4c3c2)CC1` [Compound 68] are within 0.2 log units of each other in pIC50: 7.00 for the first, 6.85 for the second.

First: COc1ccc(S(=O)(=O)Nc2cc3c(cc2C)[nH]c(=O)c2ccccc23)cc1 [Compound 60]
Second: O=C(NC(Cc1ccc2ccccc2c1)C(=O)O)c1ccc2c(c1)[nH]c(=O)c1ccccc12 (stereo not drawn) [Compound 42]
The pIC50 of the first is 2.78 log units lower: 4.94 for the first, 7.72 for the second. The second is the more potent here.

`CCCCC(NC(=O)c1ccc2c(c1)[nH]c(=O)c1ccccc12)C(=O)O` (stereo not drawn) [Compound 29] and `O=C(N[C@@H](CS)C(=O)O)c1ccc2c(c1)[nH]c(=O)c1ccccc12` [Compound 35] are within 0.2 log units of each other in pIC50: 7.27 for the first, 7.08 for the second.

First: O=C(NCCCc1ccccc1)c1ccc2c(c1)[nH]c(=O)c1cc(F)ccc12 [Compound 57]
Second: O=C(NCCN1CCOCC1)c1ccc2c(c1)[nH]c(=O)c1ccccc12 [Compound 9]
The pIC50 of the first is 1.02 log units lower: 6.38 for the first, 7.40 for the second.

Compared with `CC(C)N(C(=O)c1ccc2c(c1)[nH]c(=O)c1ccccc12)C(C)C` [Compound 66], `Cc1cccc2c(=O)[nH]c3cc(C(F)(F)F)c(NC(=O)CCl)cc3c12` [Compound 20] is 0.48 log units higher in pIC50: 7.00 for the first, 7.48 for the second. The second is the more potent here.

These compounds were tested on male Long-Evans rats (assay: Focal cerebral ischemia (MCA cauterization with temporary bilateral CCA occlusion)). Conditions: 5 mg/kg i.p. 2 h before and 2 h after MCA occlusion; 24 h; mean±SD; control 165.2±34.0; p<0.001.
Format: in vivo, rat
Protocol: Focal cerebral ischemia is produced by cauterization of the right distal MCA (middle cerebral artery) with bilateral temporary common carotid artery occlusion in male Long-Evans rats for 90 minutes. All procedures performed on the animals are approved by the University Institutional Animal Care and Use Committee of the University of Pennsylvania. A total of 42 rats (weights: 230-340 g) obtained from Charles River were used in this study. The animals fasted overnight with free access to water prior to the surgical procedure
Two hours prior to MCA occlusion, varying amounts (control, n=14; 5 mg/kg, n=7; 10 mg/kg, n=7; 20 mg/kg, n=7; and 40 mg/kg, n=7) of the compound, 3,4-dihydro-5-[4-(1-piperidinyl)-butoxy]-1(2H)-isoquinolinone (“DPQ”) were dissolved in dimethyl sulfoxide (DMSO) using a sonicator. A volume of 1.28 ml/kg of the resulting solution was injected intraperitoneally into […].
The rats were then anesthetized with halothane (4% for induction and 0.8%-1.2% for the surgical procedure) in a mixture of 70% nitrous oxide and 30% oxygen. The body temperature was monitored by a rectal probe and maintained at 37.5±0.5° C. with a heating blanket regulated by a homeothermic blanket control unit (Harvard Apparatus Limited, Kent, U.K.). A catheter (PE-50) was placed into the tail artery, and arterial pressure was continuously monitored and recorded on a Grass polygraph recorder (Model 7D, Grass Instruments, Quincy, Mass.). Samples for blood gas analysis (arterial pH, PaO2 and PaCO2) were also taken from the tail artery catheter and measured with a blood gas analyzer (ABL 30, Radiometer, Copenhagen, Denmark). Arterial blood samples were obtained 30 minutes after MCA occlusion.
The head of the animal was positioned in a stereotaxic frame, and a right parietal incision between the right lateral canthus and the external auditory meatus was made. Using a dental drill constantly cooled with saline, a 3 mm burr hole was prepared over the cortex supplied by the right MCA, 4 mm lateral to the sagittal suture and 5 mm caudal to the coronal suture. The dura mater and a thin inner bone layer were kept, care being taken to position the probe over a tissue area devoid of large blood vessels. The flow probe (tip diameter of 1 mm, fiber separation of 0.25 mm) was lowered to the bottom of the cranial burr hole using a micromanipulator. The probe was held stationary by a probe holder secured to the skull with dental cement. The microvascular blood flow in the right parietal cortex was continuously monitored with a laser Doppler flowmeter (FloLab, Moor, Devon, U.K., and Periflux 4001, Perimed, Stockholm, Sweden). […]

For `O=C1NCCc2c(OCCCCN3CCCCC3)cccc21` [DPQ, 3,4-dihydro-5-[4-(1-piperidinyl)-butoxy]-1(2H)-isoquinolinone], the “damaged volume (total volume of infarction)” value (shortened to “damaged volume”) was 106.7±23.2 mm^3.

Same assay, conditions: 10 mg/kg i.p. 2 h before and 2 h after MCA occlusion; 24 h; mean±SD; control 165.2±34.0 mm^3; p<0.001

For `O=C1NCCc2c(OCCCCN3CCCCC3)cccc21` [DPQ, 3,4-dihydro-5-[4-(1-piperidinyl)-butoxy]-1(2H)-isoquinolinone], the “damaged volume” value was 76.4±16.8 mm.

Same assay, conditions: 20 mg/kg i.p. 2 h before and 2 h after MCA occlusion; 24 h; mean±SD; control 165.2±34.0; p<0.01

`O=C1NCCc2c(OCCCCN3CCCCC3)cccc21` [DPQ, 3,4-dihydro-5-[4-(1-piperidinyl)-butoxy]-1(2H)-isoquinolinone] was tested, and the “damaged volume” value was 110.2±42.0 mm^3.

Same assay, conditions: 40 mg/kg i.p. 2 h before and 2 h after MCA occlusion; 24 h; mean±SD; no significant difference from control 165.2±34.0

`O=C1NCCc2c(OCCCCN3CCCCC3)cccc21` [DPQ, 3,4-dihydro-5-[4-(1-piperidinyl)-butoxy]-1(2H)-isoquinolinone] was tested, and the “damaged volume” value was 135.6±44.8 mm^3.
